Values of other authors in patent publication US20210346549A1, “Non-Contact Sanitizing Products and Elements” (Segan Industries, Inc., priority 2020, published 2021).

Legend:
[1] = test system: sporicidal, bactericidal, virulcide, and fungicidal; conditions: low concentrations
[2] = vaccine content versus toxic quantity
vegetative bacteria = conditions: gas-aerosol concentration of 15 to 20 mg/m3, relative humidity of about 80%
bacterial spores = conditions: gas-aerosol concentration of 15 to 20 mg/m3, relative humidity of about 80%
coronavirus 229E = conditions: 1-minute contact time; free chlorine concentration of 1,000 ppm and 5,000 ppm

In the case of `CC(=O)OO` [Peracetic acid], the “concentration at which sporicidal, bactericidal, virulcide, and fungicidal” value [1] is listed as less than 0.3%.

For `C=O` [formaldehyde], the “quantity present in vaccines lower than that necessary to induce toxicity in experimental animals” value [2] is given as “at least 600 fold”.

For `O=CCCCC=O` [glutaraldehyde], the decimal reduction time (vegetative bacteria) is given as “less than 5 min” and the decimal reduction time (bacterial spores) is given as “less than 45 min”.

For `OCl` [sodium hypochlorite], the “virucidal efficacy against coronavirus 229E” value (coronavirus 229E) is given as “effective”.
